Results taken from ChEMBL document CHEMBL4334527, “Proline-Based Allosteric Inhibitors of Zika and Dengue Virus NS2B/NS3 Proteases” (J Med Chem, 2019).
Calls of active or inactive are those of the source. No cut-off for these calls is given here.

Tests used:
[1] = biological target: T1, Nonstructural protein 3 (Zika virus, UniProt A0A024AXB9); assay: (§1) Inhibition of N-terminal hexa-histidine tagged Zika virus NS2B/NS3 protease expressed in Escherichia coli BL21-Gold (DE3) using fluorogenic AMC-substituted peptide boc-GRR-7-amino-4-methylcoumarin measured every 30 secs for 10 mins by fluorometric assay
[2] = system: dengue virus type 2; assay: as §1, with “Dengue” for “Zika”, “virus 2” for “virus”, “protease I30A/L31A mutant” for “protease”, “(DE3) at 20 uM” for “(DE3)”, “assay relative to control” for “assay”
[3] = biological target: Nonstructural protein 3 (Zika virus) (UniProt A0A024AXB9); assay: Inhibition of N-terminal hexa-histidine tagged Zika virus NS2B/NS3 protease expressed in Escherichia coli BL21-Gold (DE3) at 20 uM using fluorogenic AMC-substituted peptide boc-GRR-7-amino-4-methylcoumarin measured every 30 secs for 10 mins by fluorometric assay relative to control
[4] = Inhibition of N-terminal hexa-histidine tagged Dengue virus 2 NS2B/NS3 protease I30A/L31A mutant expressed in Escherichia coli BL21-Gold (DE3) using fluorogenic AMC-substituted peptide boc-GRR-7-amino-4-methylcoumarin measured every 30 secs for 10 mins by fluorometric assay; set-up: species or system dengue virus type 2
[5] = system: dengue virus type 2; assay: Antiviral activity against Dengue virus 2 infected in African green monkey Vero cells assessed as suppression of viral replication at 3 uM pre-incubated with cells for 1 hr before viral infection and measured after 4 days by RT-qPCR analysis; format: functional, organism-based
[6] = system: Zika virus; assay: Antiviral activity against Zika virus infected in African green monkey Vero cells assessed as suppression of viral replication at 3 uM pre-incubated with cells for 1 hr before viral infection and measured after 4 days by RT-qPCR analysis; format: functional, organism-based
[7] = system: Zika virus; assay: Antiviral activity against Zika virus French Polynesia infected in human A549 cells assessed as reduction in viral RNA at 5 uM measured after 24 to 72 hrs post infection by RT-qPCR analysis; format: functional, organism-based
[8] = system: Zika virus; assay: Antiviral activity against Zika virus Uganda infected in human A549 cells assessed as reduction in viral RNA at 5 uM measured after 24 to 72 hrs post infection by RT-qPCR analysis; format: functional, organism-based
[9] = system: A549; assay: Cytotoxicity against human A549 cells assessed as reduction in cell viability up to 5 uM by Presto blue cell viability reagent based assay
[10] = system: dengue virus type 2; assay: Antiviral activity against Dengue virus 2 infected in African green monkey Vero cells assessed as suppression of viral replication at 10 uM pre-incubated with cells for 1 hr before viral infection and measured after 4 days by RT-qPCR analysis; format: functional, organism-based
[11] = system: Zika virus; assay: Antiviral activity against Zika virus infected in African green monkey Vero cells assessed as suppression of viral replication at 10 uM pre-incubated with cells for 1 hr before viral infection and measured after 4 days by RT-qPCR analysis; format: functional, organism-based
[12] = Drug metabolism in rat liver microsomes assessed as formation of (R)-N-(5,6-Dimethoxybenzo[d]thiazol-2-yl)-1-((4-(hydroxymethyl) phenyl) sulfonyl)pyrrolidine-2-carboxamide in presence of NADPH generating system by LC-MS/MS analysis; format: ADME, Microsome
[13] = Drug metabolism in rat liver microsomes assessed as formation of (S)-N-(5,6-Dimethoxybenzo[d]thiazol-2-yl)-1-((4-(hydroxymethyl) phenyl) sulfonyl)pyrrolidine-2-carboxamide in presence of NADPH generating system by LC-MS/MS analysis; format: ADME, Microsome
[14] = Drug metabolism in rat liver microsomes assessed as formation of (S)-1-Benzoyl-N-(5,6-dihydroxybenzo[d]thiazol-2-yl)pyrrolidine-2-carboxamide in presence of NADPH generating system by LC-MS/MS analysis; format: ADME, Microsome
[15] = Drug metabolism in rat liver microsomes assessed as formation of (R)-N-(5,6-Dihydroxybenzo[d]thiazol-2-yl)-1-tosylpyrrolidine-2-carboxamide in presence of NADPH generating system by LC-MS/MS analysis; format: ADME, Microsome
[16] = biological target: T1, Nonstructural protein 3; assay: as §1, with “Non-competitive inhibition” for “Inhibition”, “using 50 to 200 uM” for “using”, “assay based Dixon plot analysis” for “assay”
[17] = Drug level in rat liver microsomes treated with (R)-N-(5,6-Dimethoxybenzo[d]thiazol-2-yl)-1-tosylpyrrolidine-2-carboxamide assessed as compound formation in presence of NADPH generating system by LC-MS/MS analysis; format: ADME, Microsome
[18] = Drug level in rat liver microsomes treated with (S)-N-(5,6-Dimethoxybenzo[d]thiazol-2-yl)-1-tosylpyrrolidine-2-carboxamide assessed as compound formation in presence of NADPH generating system by LC-MS/MS analysis; format: ADME, Microsome
[19] = biological target: T1, Nonstructural protein 3; assay: Binding affinity to N-terminal hexa-histidine tagged Zika virus NS2B/NS3 protease expressed in Escherichia coli BL21-Gold (DE3) by microscale thermophoresis method
[20] = system: Zika virus; assay: Antiviral activity against Zika virus Uganda infected in African green monkey Vero cells assessed as reduction in plaque forming units at 5 uM measured after 96 hrs by crystal violet staining based assay; format: functional, organism-based
[21] = system: Zika virus; assay: Antiviral activity against Zika virus French Polynesia infected in African green monkey Vero cells assessed as reduction in plaque forming units at 5 uM measured after 96 hrs by crystal violet staining based assay; format: functional, organism-based
[22] = system: Zika virus; assay: Antiviral activity against Zika virus infected in human A549 cells assessed as induction of redistribution of the ZIKV Env protein from ER to cytoplasm at 0.5 uM by confocal scanning microscopy; format: functional, organism-based

Nonstructural protein 3 (Zika virus), sequence (A0A024AXB9 as listed by the source): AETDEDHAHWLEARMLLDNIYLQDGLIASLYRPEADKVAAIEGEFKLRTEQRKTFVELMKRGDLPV
T1 sequence (A0A024AXB9 whole entry): as the sequence (A0A024AXB9 as listed by the source) above

## CC(=O)Nc1ccc2cc(S(=O)(=O)N3CCC[C@@H]3C(=O)Nc3nc4cc(O)c(O)cc4s3)ccc2c1
[1]
  IC50: 1.35 µM
[2]
  inhibition: 18%

## COc1cc2nc(NC(=O)C3CCCN3S(=O)(=O)c3ccc(Cl)cc3)sc2cc1OC (configuration not stated)
[3]
  inhibition: inactive
[2]
  inhibition: inactive

## CC(=O)Nc1ccc2cc(S(=O)(=O)N3CCC[C@H]3C(=O)Nc3nc4cc(O)c(O)cc4s3)ccc2c1
[1]
  IC50: 2.95 µM
[2]
  inhibition: 29%

## O=C(Nc1nc2cc(O)c(O)cc2s1)[C@H]1CCCN1S(=O)(=O)c1cccc([N+](=O)[O-])c1
[1]
  IC50: 1.11 µM
[2]
  inhibition: 33%

## O=C(Nc1nc2cc(O)c(O)cc2s1)[C@H]1CCCN1S(=O)(=O)c1ccccc1
[1]
  IC50: 1.86 µM
[2]
  inhibition: 21%

## Cc1ccc(S(=O)(=O)N2CCCC(C(=O)Nc3nc4cc(O)c(O)cc4s3)C2)cc1 (racemic)
[1]
  IC50: 4.55 µM
[2]
  inhibition: 34%

## O=C(Nc1nc2ccc([N+](=O)[O-])cc2s1)[C@H]1CCCN1C(=O)c1ccccc1
[1]
  IC50: 21.9 µM
[4]
  IC50: 33.9 µM

## O=C(Nc1nc2ccc([N+](=O)[O-])cc2s1)[C@@H]1CCCN1C(=O)c1ccccc1
[3]
  inhibition: 44%
[2]
  inhibition: 41%

## O=C(Nc1nc2cc(O)c(O)cc2s1)[C@@H]1CCCN1S(=O)(=O)c1ccc(Cl)cc1
[1]
  IC50: 0.93 µM
[2]
  inhibition: 39%

## Cc1ccc(S(=O)(=O)NCC(=O)Nc2nc3cc(O)c(O)cc3s2)cc1
[1]
  IC50: 0.81 µM
[4]
  IC50: 23 µM

## Cc1ccc(S(=O)(=O)N2CCCC[C@H]2C(=O)Nc2nc3cc(O)c(O)cc3s2)cc1
[1]
  IC50: 0.51 µM
[4]
  IC50: 13 µM

## O=C(Nc1nc2cc(O)c(O)cc2s1)[C@@H]1CCCN1S(=O)(=O)c1ccc(-c2ccccc2)cc1
[1]
  IC50: 3.17 µM
[4]
  IC50: 13.5 µM

## O=C(Nc1nc2cc(O)c(O)cc2s1)[C@H]1CCCN1S(=O)(=O)c1ccc(Cl)cc1
[1]
  IC50: 1.4 µM
[2]
  inhibition: 34%

## COc1ccc(S(=O)(=O)N2CCC[C@@H]2C(=O)Nc2nc3cc(O)c(O)cc3s2)cc1
[1]
  IC50: 0.86 µM
[2]
  inhibition: 28%

## Cc1ccc(S(=O)(=O)N2CCC(C(=O)Nc3nc4cc(O)c(O)cc4s3)CC2)cc1
[1]
  IC50: 5.95 µM
[2]
  inhibition: 41%

## O=C(Nc1nc2cc(O)c(O)cc2s1)[C@@H]1CCCN1S(=O)(=O)c1ccccc1
[1]
  IC50: 1.43 µM
[2]
  inhibition: 27%

## COc1cc2nc(NC(=O)C3CCCN3S(=O)(=O)c3ccc([N+](=O)[O-])cc3)sc2cc1OC (configuration not stated)
[3]
  inhibition: inactive
[2]
  inhibition: inactive

## O=C(Nc1nc2cc(O)c(O)cc2s1)[C@H]1CCCN1S(=O)(=O)c1ccc([N+](=O)[O-])cc1
[1]
  IC50: 0.32 µM
[4]
  IC50: 10 µM
[5]
  Activity: Active
[6]
  Activity: inactive

## Cc1ccc(S(=O)(=O)N2CCCC[C@@H]2C(=O)Nc2nc3cc(O)c(O)cc3s2)cc1
[1]
  IC50: 0.58 µM
[4]
  IC50: 29 µM

## O=C(Nc1nc2cc(O)c(O)cc2s1)[C@@H]1CCCN1C(=O)c1ccccc1
[1]
  IC50: 1.55 µM
[2]
  inhibition: 28%

## COc1ccc(S(=O)(=O)N2CCC[C@H]2C(=O)Nc2nc3cc(O)c(O)cc3s2)cc1
[1]
  IC50: 1.32 µM
[2]
  inhibition: 36%

## COc1cc2nc(NC(=O)C3CCCN3S(=O)(=O)c3ccc(C)cc3)sc2cc1OC (configuration not stated)
[3]
  inhibition: inactive
[2]
  inhibition: inactive

## O=C(Nc1nc2cc(O)c(O)cc2s1)[C@@H]1CCCN1S(=O)(=O)c1cccc([N+](=O)[O-])c1
[1]
  IC50: 1.78 µM
[2]
  inhibition: 25%

## COc1cc2nc(NC(=O)[C@@H]3CCCN3S(=O)(=O)c3ccc(C)cc3)sc2cc1OC
[7]
  Activity: inactive
[8]
  Activity: inactive
[9]
  Activity: Non-Toxic
[10]
  Activity: Active
[11]
  Activity: inactive
[12]
  Drug metabolism: Metabolite_Detected
[13]
  Drug metabolism: Metabolite_Detected
[14]
  Drug metabolism: Metabolite_Detected
[15]
  Drug metabolism: Metabolite_Detected

## Cc1ccc(S(=O)(=O)N2CCC[C@@H]2C(=O)Nc2nc3ccc([N+](=O)[O-])cc3s2)cc1
[3]
  inhibition: 31%
[2]
  inhibition: 18%

## Cc1ccc(S(=O)(=O)Nc2ccccc2C(=O)Nc2nc3cc(O)c(O)cc3s2)cc1
[1]
  IC50: 6.43 µM
[4]
  IC50: 15.3 µM
[16]
  IC50: 5.36 µM

## O=C(Nc1nc2cc(O)c(O)cc2s1)[C@@H]1CCCN1S(=O)(=O)c1ccc([N+](=O)[O-])cc1
[1]
  IC50: 0.93 µM
[4]
  IC50: 8.58 µM
[10]
  Activity: Active
[11]
  Activity: inactive

## COc1cc2nc(NC(=O)[C@H]3CCCN3S(=O)(=O)c3ccc(CO)cc3)sc2cc1OC
[17]
  Drug uptake: Active
[18]
  Drug uptake: Active

## COc1cc2nc(NC(=O)[C@@H]3CCCN3S(=O)(=O)c3ccc(CO)cc3)sc2cc1OC
[17]
  Drug uptake: Active
[18]
  Drug uptake: Active

## Cc1ccc(S(=O)(=O)N2CCC[C@H]2C(=O)Nc2nc3cc(O)c(O)cc3s2)cc1
[7]
  Activity: inactive
[8]
  Activity: inactive
[9]
  Activity: Non-Toxic
[1]
  IC50: 2.32 µM
[4]
  IC50: 25.2 µM
[19]
  Kd: 0.24 µM
[11]
  Activity: inactive
[17]
  Drug uptake: Active
[18]
  Drug uptake: Active

## COc1ccc(S(=O)(=O)N2CCC[C@@H]2C(=O)Nc2nc3cc(OC)c(OC)cc3s2)cc1
[3]
  inhibition: inactive
[2]
  inhibition: inactive

## COc1ccc2cc(Oc3ccccc3C(=O)Nc3nc4cc(OC)c(OC)cc4s3)ccc2c1
[7]
  Activity: Active
[8]
  Activity: Active
[9]
  Activity: Non-Toxic
[3]
  inhibition: inactive
[2]
  inhibition: inactive
[20]
  Activity: Active
[21]
  Activity: Active
[22]
  Activity: Active
[11]
  Activity: inactive

## O=C(Nc1nc2cc(O)c(O)cc2s1)C1CCCCC1
[3]
  inhibition: 36%
[2]
  inhibition: 20%

## Cc1ccc(S(=O)(=O)N2CCC[C@@H]2C(=O)Nc2nc3cc(O)c(O)cc3s2)cc1
[7]
  Activity: inactive
[8]
  Activity: inactive
[9]
  Activity: Non-Toxic
[1]
  IC50: 1.32 µM
[4]
  IC50: 19.7 µM
[19]
  Kd: 0.49 µM
[6]
  Activity: inactive
[17]
  Drug uptake: Active
[18]
  Drug uptake: Active

## O=C(Nc1nc2cc(O)c(O)cc2s1)[C@H]1CCCN1C(=O)c1ccccc1
[1]
  IC50: 0.94 µM
[2]
  inhibition: 33%

## O=C(Nc1nc2cc(O)c(O)cc2s1)[C@H]1CCCN1S(=O)(=O)c1ccc(-c2ccccc2)cc1
[1]
  IC50: 2.47 µM
[4]
  IC50: 10.9 µM

## O=C(Nc1nc2cc(O)c(O)cc2s1)[C@H]1CCCN1S(=O)(=O)c1ccc(F)cc1
[1]
  IC50: 1.03 µM
[2]
  inhibition: 17%
